# Data published in article PMC5618191 (Toxins, 2017).
# Where two headings read alike, the source gives them in different places.
# Columns and labels:
# KB-3-1 cells [1] = assay: Annexin-V/PI staining (cell death analysis); type: cell-based, human; conditions: KB-3-1, 24 h
# Procedure: (§1) 1. Supplementary Materials and Methods […]
# 1.2 Annexin-V/PI Staining
# KB-3-1 cells were seeded (2x10^5cells/well) and treated on the following day for 24 h with the […]
# Cells were trypsinized, centrifuged (300g, 5 min) and resuspended in 100 µL buffer A (10 mM HEPES, 140 mM NaCl and 2.5 mM CaCl2) and stained for 15 min in the dark with PI (1 µg/mL) and Annexin-V-APC (20 µL/mL, BD Biosciences). Two-hundred µL of buffer A were then added and 10,000 cells were measured by FACS analysis (FACSCalibur; Becton Dickinson). Percentages of viable, early and late apoptotic cells and of necrotic cells were determined by CellQuest Pro software (Becton, Dickinson and Company, NY, USA). […]
# (§2) The following primary […]
# (§3) antibodies specific for the following targets were diluted 1:1000 in TBST/3% BSA (w/v): PARP, Bak, Bax, Bim, Bcl-xL (polyclonal, Cell Signaling Technology, Beverly, MA, USA), caspase 9, cl. caspase 9 (monoclonal, Cell Signaling Technology) and β-actin (monoclonal, Clone AC-15, Sigma-Aldrich).
# (§4) Secondary horseradish peroxidase-labeled antibodies (goat anti-rabbit or anti-mouse, Santa Cruz Biotechnology, Dallas, Texas, TX, USA) were diluted 1:10,000 in TBST/1% BSA. […]
# (b) Mean percentages (± SD) of early (white bars) and late apoptotic (gray bars) and of necrotic cells (black bars) were determined by Annexin-V/PI staining after cells were treated for 24 h with the […]
# KB-3-1 cells [2] = assay: Cell cycle analysis (PI staining, flow cytometry); type: cell-based, human; conditions: KB-3-1, subtoxic concentrations
# Procedure: 1. Supplementary Materials and Methods
# KB-3-1 cells (3.5x105/per well) were seeded into 6-well plates and treated the next day with the […]
# After incubation at 37°C for another 24 h, cells were trypsinized, centrifuged (8 min, 300g, RT) and fixed in 70% ethanol and stored at -20°C overnight.
# Fixed cells were centrifuged (1 min, 6000g) and resuspended in 100 µL of 0.9% NaCl. RNA was digested with 0.2 mg/mL of RNase for 30 min at 37°C. DNA was stained with propidium iodide (PI, 0.01 mg/mL, Sigma-Aldrich St. Louis, Missouri, USA) for 30 min at 4°C in the dark. Afterwards, cells were analyzed by flow cytometry using FACS Calibur (BD Biosciences, Franklin Lakes, New Jersey, USA) as described previously. CellQuest Pro software (BD Biosciences) was utilized to determine percentages of the respective cell cycle phases. […]
# as §2, §3, §4
# KB-3-1 cells [3] = tested on: KB-3-1 cells; parameters: method as in PMID 19517454; conditions: two-year in vitro selection process; cited from earlier work
# HUVEC cells = assay: Vessel forming and migratory ability of HUVEC cells; type: cell-based, human; conditions: subtoxic concentrations, unpublished data
# [4] = tested on: SW480 colorectal adenocarcinoma cells; assay: Cell viability assay (MTT, 72 h); type: cell-based, human
# Procedure: For the cell lines KB-3-1 and SW480 2 × 10^3 cells, for NIH/3T3, CT-26, HaCaT, and GH354 cells 3 × 10^3 cells and for ME-180 and SW620 cells 4 × 10^3 cells were seeded into 96-well pates and incubated at 37 °C (5% CO2) overnight. […] For higher cell confluency, NIH/3T3, CT-26, HaCaT, KB-3-1, and SW480 cells were grown to a cell density of approximately 50–60% before treatment. […] The percentage of viable cells was detected after incubation with 3-(4,5-dimethylthiazol-2-yl)-2,5-diphenyltetrazolium bromide (MTT) at 37 °C for 1–4 h, depending on the cell line, according to the user manual (EZ4U, Biomedica, Vienna, Austria). […] All experiments were conducted using full-growth media with 10% FBS in triplicate and repeated three times. The cell confluency was analyzed by Image J 1.50i (NIH, New York, NY, USA).
# KB-3-1 cells [5] = assay: Western blot analysis of apoptosis proteins; type: cell-based, human; conditions: KB-3-1, 24 h
# Procedure: as §1
# 1.3 Western Blot Analysis […]
# as §3, with “according to standard procedures, separated by SDS-PAGE, and transferred to a polyvinylidene difluoride membrane for Western blotting as described previously. The following primary antibodies” for “antibodies”
# Secondary horseradish peroxidase-labeled antibodies (goat anti-rabbit or anti-mouse, Santa Cruz Biotechnology, Dallas, Texas, TX, USA) were diluted 1:10,000 in TBST/1% BSA.
# (black circles), human non-malignant keratinocytes HaCaT (open circles), murine colon carcinoma CT-26 (asterisks), human cervix carcinoma KB-3-1 (gray triangle) and human colon carcinoma SW480 cells (gray square) at higher density. Cells were grown to a 50-60% confluence and treated with the […]
# The IC50 level is indicated by the dotted line. Mean values (± SD) of one representative experiment in triplicate are shown.
# Figure S4. […]
# Significant differences to untreated controls are marked by asterisks (***p<0.001). (c) Expression of PARP and caspase 9 and amount of cleaved (Cl.) PARP and cleaved Caspase 9, as well as protein expression of Bim, Bax, Bak and Bcl-xL in beauvericin-treated (24 h) and untreated cells were determined by Western Blotting. β-actin served as loading control. […]
# [6] = SW480, sparse (5–10% confluency)
substance,measurement,setting,value
beauvericin,Concentration at which induction of apoptotic cell death was clearly detectable,KB-3-1 cells [1],> 2 µM
same,Cell cycle effect,KB-3-1 cells [2],cell cycle arrest in the G0/G1-phase
same,Acquisition of resistance,KB-3-1 cells [3],did not induce beauvericin-unresponsiveness
same,Vessel forming and migratory ability of HUVEC cells,HUVEC cells,distinctly inhibited
same,IC50,"[4]; SW480, higher density (50–60% confluency), read-out: IC50 value",3.7 µM
same,Mean IC25 ± SD,[4]; [6],2.1 ± 1.3 µM
same,Mean IC75 ± SD,[4]; [6],4.2 ± 2.7 µM
same,IC50,"[4]; SW480, sparse (5–10% confluency), read-out: Mean IC50 ± SD",3.3 ± 0.3 µM
same,Antiapoptotic Bcl-xL,KB-3-1 cells [5],reduced
same,Cleavage of PARP and caspase 9,KB-3-1 cells [5],induced
same,Proapoptotic Bcl-2 family members Bim and Bak,KB-3-1 cells [5],upregulation
